According to patent US8367658B2, “Pyrazin-2-yl-pyridin-2-yl-amine and pyrazin-2-yl-pyrimidin-4-yl-amine compounds and their use” (Cancer Research Technology Limited, priority 2007, dated 2013):
Where “and” joins values, the source holds several entries; their conditions need not be identical. Identical values can stand only once.

target: T1, CHK1 (Homo sapiens, UniProt O14757); test: CHK1 kinase function inhibition assay (DELFIA, phosphorylation of a CDC25C peptide); assay type: biochemical; settings: CHK1 1 nM, ATP 30 μM, 30 minutes at room temperature
T1 sequence (O14757 1-476): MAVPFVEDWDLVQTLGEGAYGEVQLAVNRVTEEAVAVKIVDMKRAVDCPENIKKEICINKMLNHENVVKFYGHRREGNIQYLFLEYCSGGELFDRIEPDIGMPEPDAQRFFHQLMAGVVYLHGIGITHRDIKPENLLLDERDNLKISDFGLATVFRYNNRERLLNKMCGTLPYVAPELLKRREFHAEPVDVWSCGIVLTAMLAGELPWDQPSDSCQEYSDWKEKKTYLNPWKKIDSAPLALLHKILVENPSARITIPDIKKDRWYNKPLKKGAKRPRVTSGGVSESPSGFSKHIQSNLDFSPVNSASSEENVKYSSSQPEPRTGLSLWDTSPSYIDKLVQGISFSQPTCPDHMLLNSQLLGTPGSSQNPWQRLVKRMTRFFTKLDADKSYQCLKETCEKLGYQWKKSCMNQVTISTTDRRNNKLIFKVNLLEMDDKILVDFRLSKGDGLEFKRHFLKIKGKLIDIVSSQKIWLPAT
Outline: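 Phosphorylation of a CDC25C peptide detected by DELFIA with a phospho-specific antibody. Kinase reaction ran 30 min at room temperature, was stopped with EDTA buffer, then captured on neutravidin-coated plates for 1 h before time-resolved fluorescence read-out with enhancement solution.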

Cc1ccccc1-c1cnc(Nc2cnc(C#N)cn2)cc1NC1CCN(C)CC1 [Compound Y-121, 5-(4-(1-Methylpiperidin-4-ylamino)-5-o-tolylpyridin-2-ylamino)pyrazine-2-carbonitrile] and COC/C=C/c1cnc(Nc2cnc(C#N)cn2)cc1NC1CCN(C)CC1 [Compound Y-123, (E)-5-(5-(3-methoxyprop-1-enyl)-4-(1-methylpiperidin-4-ylamino)pyridin-2-ylamino)pyrazine-2-carbonitrile] cannot be ordered by IC50: 100 to 1000 nM for the first, ≤ 100 nM for the second.

COc1ccc(-c2cnc(Nc3cnc(C#N)cn3)cc2NC2CCNCC2)cc1 [Compound Y-122, 5-(5-(4-Methoxyphenyl)-4-(piperidin-4-ylamino)pyridin-2-ylamino)pyrazine-2-carbonitrile] and COc1ccc(-c2cnc(Nc3cnc(C#N)cn3)cc2NCC2CCNCC2)cc1 [Compound Y-126, 5-(5-(4-Methoxyphenyl)-4-(piperidin-4-ylmethylamino)pyridin-2-ylamino)pyrazine-2-carbonitrile] cannot be ordered by IC50: ≤ 100 nM for the first, ≤ 100 nM for the second.

N#Cc1cnc(Nc2cc(NCC3CCNCC3)c(Cl)cn2)cn1 [Compound Y-124, 5-(5-chloro-4-(piperidin-4-ylmethylamino)pyridin-2-ylamino)pyrazine-2-carbonitrile] and N#Cc1cnc(Nc2cc(NCC3CCNCC3)c(C#CCO)cn2)cn1 [Compound Y-145, 5-(5-(3-Hydroxyprop-1-ynyl)-4-(piperidin-4-ylmethylamino)pyridin-2-ylamino)pyrazine-2-carbonitrile] cannot be ordered by IC50: ≤ 100 nM for the first, ≤ 100 nM for the second.

COCc1ccc(-c2cnc(Nc3cnc(C#N)cn3)cc2NCC2CCNCC2)cc1 [Compound Y-127, 5-(5-(4-(Methoxymethyl)phenyl)-4-(piperidin-4-ylmethylamino)pyridin-2-ylamino)pyrazine-2-carbonitrile] and CS(=O)(=O)c1ccc(-c2cnc(Nc3cnc(C#N)cn3)cc2NCC2CCNCC2)cc1 [Compound Y-130, 5-(5-(4-(methylsulfonyl)phenyl)-4-(piperidin-4-ylmethylamino)pyridin-2-ylamino)pyrazine-2-carbonitrile] cannot be ordered by IC50: ≤ 100 nM for the first, ≤ 100 nM for the second.

CCOC(=O)c1cc(-c2cnc(Nc3cnc(C#N)cn3)cc2NCC2CCNCC2)cs1 [Compound Y-128, Ethyl 4-(6-(5-cyanopyrazin-2-ylamino)-4-(piperidin-4-ylmethylamino)pyridin-3-yl)thiophene-2-carboxylate] and CS(=O)(=O)c1cccc(-c2cnc(Nc3cnc(C#N)cn3)cc2NCC2CCNCC2)c1 [Compound Y-132, 5-(5-(3-(Methylsulfonyl)phenyl)-4-(piperidin-4-ylmethylamino)pyridin-2-ylamino)pyrazine-2-carbonitrile] cannot be ordered by IC50: ≤ 100 nM for the first, 100 to 1000 nM for the second.

N#Cc1cnc(Nc2cc(NCC3CCNCC3)c(-c3ccc(OCCO)cc3)cn2)cn1 [Compound Y-129, 5-(5-(4-(2-hydroxyethoxy)phenyl)-4-(piperidin-4-ylmethylamino)pyridin-2-ylamino)pyrazine-2-carbonitrile] and COCCCOc1ccc(-c2cnc(Nc3cnc(C#N)cn3)cc2NCC2CCNCC2)cc1 [Compound Y-133, 5-(5-(4-(3-Methoxypropoxy)phenyl)-4-(piperidin-4-ylmethylamino)pyridin-2-ylamino)pyrazine-2-carbonitrile] cannot be ordered by IC50: ≤ 100 nM for the first, 100 to 1000 nM for the second.

N#Cc1cnc(Nc2cc(NCC3CCNCC3)c(-c3ccc4c(c3)OCCO4)cn2)cn1 [Compound Y-134, 5-(5-(2,3-Dihydrobenzo[b][1,4]dioxin-6-yl)-4-(piperidin-4-ylmethylamino)pyridin-2-ylamino)pyrazine-2-carbonitrile] and N#Cc1cnc(Nc2cc(NCC3CCNCC3)c(CCCCO)cn2)cn1 [Compound Y-142, 5-(5-(4-hydroxybutyl)-4-(piperidin-4-ylmethylamino)pyridin-2-ylamino)pyrazine-2-carbonitrile] fall in the same range of IC50: 100 to 1000 nM for the first, 100 to 1000 nM for the second.

COc1ccc(-c2cnc(Nc3cnc(C#N)cn3)cc2NCC2(F)CCNCC2)cc1 [Compound Y-136, 5-(4-((4-Fluoropiperidin-4-yl)methylamino)-5-(4-methoxyphenyl)pyridin-2-ylamino)pyrazine-2-carbonitrile] and COc1ccc(-c2cnc(Nc3cnc(C#N)cn3)cc2NCCC2CNCCO2)cc1 (stereo not drawn) [Compound Y-137, 5-(5-(4-methoxyphenyl)-4-(2-(morpholin-2-yl)ethylamino)pyridin-2-ylamino)pyrazine-2-carbonitrile] cannot be ordered by IC50: ≤ 100 nM for the first, ≤ 100 nM for the second.

N#Cc1cnc(Nc2cc(NCCC3CNCCO3)c(-c3ccccc3)cn2)cn1 (stereo not drawn) [Compound Y-138, 5-(4-(2-(Morpholin-2-yl)ethylamino)-5-phenylpyridin-2-ylamino)pyrazine-2-carbonitrile] and COCc1ccc(-c2cnc(Nc3cnc(C#N)cn3)cc2NC[C@@H]2CNCCO2)cc1 [Compound Y-148, (S)-5-(5-(4-(Methoxymethyl)phenyl)-4-(morpholin-2-ylmethylamino)pyridin-2-ylamino)pyrazine-2-carbonitrile] cannot be ordered by IC50: ≤ 100 nM for the first, ≤ 100 nM for the second.

COC/C=C/c1cnc(Nc2cnc(C#N)cn2)cc1NCC1CCNCC1 [Compound Y-139, (E)-5-(5-(3-Methoxyprop-1-enyl)-4-(piperidin-4-ylmethylamino)pyridin-2-ylamino)pyrazine-2-carbonitrile] and COCCCc1cnc(Nc2cnc(C#N)cn2)cc1NCC1CCNCC1 [Compound Y-141, 5-(5-(3-methoxypropyl)-4-(piperidin-4-ylmethylamino)pyridin-2-ylamino)pyrazine-2-carbonitrile] cannot be ordered by IC50: ≤ 100 nM for the first, ≤ 100 nM for the second.

COCCOc1ccc(-c2cnc(Nc3cnc(C#N)cn3)cc2NC[C@@H]2CNCCO2)cc1 [Compound Y-149, (S)-5-(5-(4-(2-Methoxyethoxy)phenyl)-4-(morpholin-2-ylmethylamino)pyridin-2-ylamino)pyrazine-2-carbonitrile] and COCCOc1ccc(-c2cnc(Nc3cnc(C#N)cn3)cc2NC[C@H]2CNCCO2)cc1 [Compound Y-157, (R)-5-(5-(4-(2-Methoxyethoxy)phenyl)-4-(morpholin-2-ylmethylamino)pyridin-2-ylamino)pyrazine-2-carbonitrile] cannot be ordered by IC50: ≤ 100 nM for the first, ≤ 100 nM for the second.

COCC#Cc1cnc(Nc2cnc(C#N)cn2)cc1NC[C@@H]1CNCCO1 [Compound Y-154, (S)-5-(5-(3-Methoxyprop-1-ynyl)-4-(morpholin-2-ylmethylamino)pyridin-2-ylamino)pyrazine-2-carbonitrile] and COC(C)(C)C#Cc1cnc(Nc2cnc(C#N)cn2)cc1NC[C@@H]1CNCCO1 [Compound Y-155, (S)-5-(5-(3-Methoxy-3-methylbut-1-ynyl)-4-(morpholin-2-ylmethylamino)pyridin-2-ylamino)pyrazine-2-carbonitrile] cannot be ordered by IC50: ≤ 100 nM for the first, ≤ 100 nM for the second.

COCc1ccc(-c2cnc(Nc3cnc(C#N)cn3)cc2NC[C@H]2CNCCO2)cc1 [Compound Y-156, (R)-5-(5-(4-(Methoxymethyl)phenyl)-4-(morpholin-2-ylmethylamino)pyridin-2-ylamino)pyrazine-2-carbonitrile] and COCCCc1cnc(Nc2cnc(C#N)cn2)cc1NC[C@H]1CNCCO1 [Compound Y-159, (R)-5-(5-(3-Methoxypropyl)-4-(morpholin-2-ylmethylamino)pyridin-2-ylamino)pyrazine-2-carbonitrile] cannot be ordered by IC50: ≤ 100 nM for the first, ≤ 100 nM for the second.

c1cnc(Nc2cc(NCC3CCNCC3)ncn2)cn1 [Compound Z-004, N-(Piperidin-4-ylmethyl)-W-pyrazin-2-ylpyrimidine-4,6-diamine] and NCCCNc1cc(Nc2cnccn2)ncn1 [Compound Z-005, N-(3-Aminopropyl)-A-pyrazin-2-ylpyrimidine-4,6-diamine] fall in the same range of IC50: 1000 to 10000 nM for the first, 1000 to 10000 nM for the second.

NCCCCNc1cc(Nc2cnccn2)ncn1 [Compound Z-006, N-(4-Aminobutyl)-N′-pyrazin-2-ylpyrimidine-4,6-diamine] and N#Cc1cnc(Nc2cc(N(CCN)CC(N)=O)ncn2)cn1 [Compound Z-009, 2-((2-Aminoethyl)(6-(5-cyanopyrazin-2-ylamino)pyrimidin-4-yl)amino)acetamide] fall in the same range of IC50: 1000 to 10000 nM for the first, 1000 to 10000 nM for the second.

N#Cc1cnc(Nc2cc(N[C@H]3CCCNC3)ncn2)cn1 [Compound Z-013, (S)-5-(6-(Piperidin-3-ylamino)pyrimidin-4-ylamino)pyrazine-2-carbonitrile] and N#Cc1cnc(Nc2cc(N3CCOC(CN)C3)ncn2)cn1 (stereo not drawn) [Compound Z-014, 5-(6-(2-(Aminomethyl)morpholino)pyrimidin-4-ylamino)pyrazine-2-carbonitrile] fall in the same range of IC50: 1000 to 10000 nM for the first, 1000 to 10000 nM for the second.

N#Cc1cnc(Nc2cc(N3CCC(C(N)c4ccccc4)CC3)ncn2)cn1 (stereo not drawn) [Compound Z-015, 5-(6-(4-(Amino(phenyl)methyl)piperidin-1-yl)pyrimidin-4-ylamino)pyrazine-2-carbonitrile] showed an IC50 of 1000 to 10000 nM.

In the case of N#Cc1cnc(Nc2cc(NCCC[C@H](N)C(=O)Nc3ccccc3)ncn2)cn1 [Compound Z-010, (S)-2-Amino-5-(6-(5-cyanopyrazin-2-ylamino)pyrimidin-4-ylamino)-N-phenylpentanamide], the IC50 is reported as ≤ 1000 nM and 100 to 1000 nM.
For N#Cc1cnc(Nc2cc(NCCC[C@H](N)C(=O)NCc3ccccc3)ncn2)cn1 [Compound Z-011, (S)-2-Amino-N-benzyl-5-(6-(5-cyanopyrazin-2-ylamino)pyrimidin-4-ylamino)pentanamide], the IC50 was ≤ 1000 nM and 100 to 1000 nM.
N#Cc1cnc(Nc2cc(NC3CCNCC3)ncn2)cn1 [Compound Z-012, 5-(6-(Piperidin-4-ylamino)pyrimidin-4-ylamino)pyrazine-2-carbonitrile] was tested, and the IC50 was ≤ 1000 nM and 100 to 1000 nM.
